{
  "source": "patent US20150216794A1",
  "about": "“METHODS OF TREATING PAIN ASSOCIATED WITH OSTEOARTHRITIS OF A JOINT WITH A TOPICAL FORMULATION OF A SPIRO-OXINDOLE COMPOUND” (IVAX International GmbH, priority 2014, published 2015)",
  "key": {"[1]": {"tested_on": "complete Freund's adjuvant (CFA) model of inflammatory pain", "assay": "CFA model of inflammatory pain", "assay_type": "in vivo, rat", "details": "topical, dose-response; model not restated (follows CFA paragraph)"}, "[2]": {"assay": "minipig: tissue distribution of radioactivity and unchanged compound", "assay_type": "in vivo, Göttingen minipig", "details": "for concentration at 24 h: male, Göttingen, minipig, topical, 70 mg spiro-oxindole compound equivalents ointment/kg", "text": "The following tissues/organs were removed from the remaining carcass:\nThe urinary bladder from each animal was rinsed with saline and the washings discarded. Each section of the gastrointestinal tract wall was washed to remove contents (which were retained for analysis) prior to analysis. Remaining carcasses were discarded."}, "[3]": {"assay": "domestic pig joint penetration: concentration in synovial membrane", "assay_type": "in vivo", "procedure": "(§1) This study was conducted to evaluate the joint penetration, systemic plasma exposure and tissue distribution of the spiro-oxindole compound in domestic pigs following topical administration of a pharmaceutical composition utilized in the methods of the invention. Fifteen female pigs were used in this study with three pigs in each group. Beginning on Day 1, a pharmaceutical composition of the invention was topically applied to the left radiocarpal joint (carpus) and tibiotarsal joint (hock) twice daily (bid) for 17 days (34 applications) for Groups 1-4 and once daily (qd) for 17 days (17 applications) for Group 5. Pre-dose blood samples (prior to morning dosing) was collected on Days 2, 7, 10, 14 and 17. A full pharmacokinetic sampling was performed on Day 17 (post am dosing) at the following time points: 1, 2, 4, 8 and 12 hr. On the day of necropsy, Day 18, blood was collected prior to euthanasia, each pig was humanely euthanized and dorsal skin and muscle, liver, kidney, heart, lung, brain, intestine, fat, ovaries, urinary bladder, sciatic nerve, and skin, muscle, synovial membrane, and synovial fluid from all 4 joints (2 treated, left carpus and hock, and 2 untreated, right carpus and hock) was collected.\nDoses were calculated by measuring the joint circumference and joint width (to include ˜2 cm above and below the joint) to calculate the total surface area for each individual dose. Group 1 received a 2% pharmaceutical composition of the invention and the dose volume for Group 1 was calculated using the total surface area and the designated dose volume of 3 μL/cm^2. The total dose volume was then converted from μL to mL to estimate the dose weight in grams, based on the composition density of 1 g/cm^3. Following is an example (not actual measurements) of calculating the dose:\nFor Groups 2-5, the dose volume was calculated using the total surface area and the designated dose volume of 3 μL/cm^2 (Groups 2, 3 and 5) or 1 μL/cm^2 (Group 4). The total dose volume was then converted from μL to mL to estimate the dose length in centimeters of a ribbon of the pharmaceutical composition when squeezed from a glaminate tube onto a metal metric ruler, based on the composition length-weight relationship of 1 cm of pharmaceutical composition being equal to 0.5 g of the composition (diameter of the tube opening was 0.87 cm).\nThe test compositions were topically applied an equal distance above and below the center of the joint, i.e., inter-carpal joint space (carpus) and inter-tarsal joint space (hock) of each animal to allow for complete coverage of the joint, including approximately 2 cm above and below the edges of the joint. The test composition was applied to the entire circumference of the designated area. All animals were dosed using the same distance above and below each joint center for consistency.\n(§2) The dose volume (μL/cm^2) for the test pharmaceutical compositions was 3.0 μL/cm^2 for Groups 1, 2, 3 and 5 and 1.0 μL/cm^2 for Group 4.\n(§3) The following tissue samples were collected after euthanasia: • Dorsal skin and muscle (from the mid-back) • Liver—Left Medial Lobe • Kidney—Right • Heart • Lung—Right diaphragmatic lobe • Brain—Right cerebral hemisphere • Intestine—mid-jejunum • Duodenum (10-15 cm length) from all 6 animals in Groups 1 and 2 • Fat • Ovary—Right • Urinary bladder • Sciatic nerve from both legs • Skin, muscle underlying site of administration and synovial membrane of all 4 joints (treated left carpus and hock and untreated right carpus and hock)"}, "[4]": {"assay": "domestic pig joint penetration study: concentration in liver tissue", "assay_type": "in vivo", "procedure": "as §1, §2, §3"}},
  "note": "“And” between values parts separate entries of the source, which are not always exact repeats. Equal values may be shown once.",
  "data": [
    {"smiles": "O=C1N(Cc2ccc(C(F)(F)F)o2)c2ccccc2[C@]12COc1cc3c(cc12)OCO3", "note": "[spiro-oxindole compound, (S)-1′-{[5-(trifluoromethyl)furan-2-yl]methyl}spiro[furo[2,3-f][1,3]benzodioxole-7,3′-indol]-2′(1′H)one]", "values": [
      {"measurement": "dose with greatest effect (highest dose tested)", "setting": "[1]", "value": "8 % (w/w)"},
      {"measurement": "minimum effective dose", "setting": "[1]", "value": "2 % (w/w)"},
      {"measurement": "tissue radioactivity concentrations in the majority of tissues analysed", "setting": "[2]; limit of quantification ca 12-25 ng equivalents spiro-oxindole compound/g", "value": "below the limit of quantification"},
      {"measurement": "concentration at 24 h", "setting": "[2]; heart", "value": 17.5, "unit": "ng/g"},
      {"measurement": "concentration at 24 h", "setting": "[2]; liver", "value": 11.3, "unit": "ng/g"},
      {"measurement": "concentration at 24 h", "setting": "[2]; skin from the dose site", "value": 1860, "unit": "ng/g"},
      {"measurement": "concentration at 24 h", "setting": "[2]; white fat", "value": 53.8, "unit": "ng/g"},
      {"measurement": "concentration in synovial membrane tissue, individual animals", "setting": "[3]; G1 (#1-#3): 2% composition, 3.0 μL/cm^2 bid 17 days, Treated left carpus", "value": "126.88 ng/g and 56.86 ng/g and 105.89 ng/g"},
      {"measurement": "concentration in synovial membrane tissue, individual animals", "setting": "[3]; G1 (#1-#3): 2% composition, 3.0 μL/cm^2 bid 17 days, Treated left hock", "value": "152.13 ng/g and 38.86 ng/g and 54.04 ng/g"},
      {"measurement": "concentration in synovial membrane tissue, individual animals", "setting": "[3]; G1 (#1-#3): 2% composition, 3.0 μL/cm^2 bid 17 days, Untreated right carpus", "value": "70.83 ng/g and 84.97 ng/g and 44.47 ng/g"},
      {"measurement": "concentration in synovial membrane tissue, individual animals", "setting": "[3]; G1 (#1-#3): 2% composition, 3.0 μL/cm^2 bid 17 days, Untreated right hock", "value": "97.22 ng/g and 33.16 ng/g and 41.19 ng/g"},
      {"measurement": "concentration in synovial membrane tissue, individual animals", "setting": "[3]; G2 (#4-#6): 4% composition, 3.0 μL/cm^2 bid 17 days, Treated left carpus", "value": "72.14 ng/g and 269.82 ng/g and 183.72 ng/g"},
      {"measurement": "concentration in synovial membrane tissue, individual animals", "setting": "[3]; G2 (#4-#6): 4% composition, 3.0 μL/cm^2 bid 17 days, Treated left hock", "value": "132.05 ng/g and 95.93 ng/g and 131.87 ng/g"},
      {"measurement": "concentration in synovial membrane tissue, individual animals", "setting": "[3]; G2 (#4-#6): 4% composition, 3.0 μL/cm^2 bid 17 days, Untreated right carpus", "value": "114.15 ng/g and 100.42 ng/g and 129.30 ng/g"},
      {"measurement": "concentration in synovial membrane tissue, individual animals", "setting": "[3]; G2 (#4-#6): 4% composition, 3.0 μL/cm^2 bid 17 days, Untreated right hock", "value": "92.75 ng/g and 69.80 ng/g and 98.28 ng/g"},
      {"measurement": "concentration in synovial membrane tissue, individual animals", "setting": "[3]; G3 (#7-#9): 8% composition, 3.0 μL/cm^2 bid 17 days, Treated left carpus", "value": "708.62 ng/g and 737.86 ng/g and 137.46 ng/g"},
      {"measurement": "concentration in synovial membrane tissue, individual animals", "setting": "[3]; G3 (#7-#9): 8% composition, 3.0 μL/cm^2 bid 17 days, Treated left hock", "value": "252.46 ng/g and 576.83 ng/g and 1917.93 ng/g"},
      {"measurement": "concentration in synovial membrane tissue, individual animals", "setting": "[3]; G3 (#7-#9): 8% composition, 3.0 μL/cm^2 bid 17 days, Untreated right carpus", "value": "54.19 ng/g and 185.83 ng/g and 130.63 ng/g"},
      {"measurement": "concentration in synovial membrane tissue, individual animals", "setting": "[3]; G3 (#7-#9): 8% composition, 3.0 μL/cm^2 bid 17 days, Untreated right hock", "value": "82.74 ng/g and 737.82 ng/g and 167.55 ng/g"},
      {"measurement": "concentration in synovial membrane tissue, individual animals", "setting": "[3]; G4 (#10-#12): 8% composition, 1.0 μL/cm^2 bid 17 days, Treated left carpus", "value": "49.99 ng/g and 59.22 ng/g and 159.68 ng/g"},
      {"measurement": "concentration in synovial membrane tissue, individual animals", "setting": "[3]; G4 (#10-#12): 8% composition, 1.0 μL/cm^2 bid 17 days, Treated left hock", "value": "291.56 ng/g and 38.32 ng/g and 3171.10 ng/g"},
      {"measurement": "concentration in synovial membrane tissue, individual animals", "setting": "[3]; G4 (#10-#12): 8% composition, 1.0 μL/cm^2 bid 17 days, Untreated right carpus", "value": "34.85 ng/g and 1772.86 ng/g and 46.92 ng/g"},
      {"measurement": "concentration in synovial membrane tissue, individual animals", "setting": "[3]; G4 (#10-#12): 8% composition, 1.0 μL/cm^2 bid 17 days, Untreated right hock", "value": "26.20 ng/g and 0.00 ng/g and 45.29 ng/g"},
      {"measurement": "concentration in synovial membrane tissue, individual animals", "setting": "[3]; G5 (#13-#15): 8% composition, 3.0 μL/cm^2 qd 17 days, Treated left carpus", "value": "702.22 ng/g and 150.00 ng/g and 35.31 ng/g"},
      {"measurement": "concentration in synovial membrane tissue, individual animals", "setting": "[3]; G5 (#13-#15): 8% composition, 3.0 μL/cm^2 qd 17 days, Treated left hock", "value": "31.44 ng/g and 100.00 ng/g and 55.90 ng/g"},
      {"measurement": "concentration in synovial membrane tissue, individual animals", "setting": "[3]; G5 (#13-#15): 8% composition, 3.0 μL/cm^2 qd 17 days, Untreated right carpus", "value": "11.61 ng/g and 25.25 ng/g and 79.58 ng/g"},
      {"measurement": "concentration in synovial membrane tissue, individual animals", "setting": "[3]; G5 (#13-#15): 8% composition, 3.0 μL/cm^2 qd 17 days, Untreated right hock", "value": "18.69 ng/g and 37.98 ng/g and 21.70 ng/g"},
      {"measurement": "concentration in synovial membrane tissue of treated joint (in words)", "setting": "[3]; domestic pig, topical administration to a joint", "value": "micromolar concentrations"},
      {"measurement": "concentration in liver tissue, individual animals", "setting": "[4]; G1 (#1-#3): 2% composition, 3.0 μL/cm^2 bid 17 days", "value": "17.0 ng/g and 2.2 ng/g and 14.0 ng/g"},
      {"measurement": "concentration in liver tissue, individual animals", "setting": "[4]; G2 (#4-#6): 4% composition, 3.0 μL/cm^2 bid 17 days", "value": "49.1 ng/g and 29.3 ng/g"},
      {"measurement": "concentration in liver tissue, individual animals", "setting": "[4]; G3 (#7-#9): 8% composition, 3.0 μL/cm^2 bid 17 days", "value": "47.2 ng/g and 48.2 ng/g and 21.6 ng/g"},
      {"measurement": "concentration in liver tissue, individual animals", "setting": "[4]; G4 (#10-#12): 8% composition, 1.0 μL/cm^2 bid 17 days", "value": "0.0 ng/g and 39.1 ng/g and 13.0 ng/g"},
      {"measurement": "concentration in liver tissue, individual animals", "setting": "[4]; G5 (#13-#15): 8% composition, 3.0 μL/cm^2 qd 17 days", "value": "3.6 ng/g and 25.1 ng/g and 0.0 ng/g"}
    ]}
  ]
}
